Assay [1] has as its target Human immunodeficiency virus type 1 integrase (Human immunodeficiency virus 1, UniProt Q7ZJM1).
Description: Inhibition of strand transfer activity of recombinant HIV1 integrase using 5'-end-labeled 21-mer double-stranded DNA as substrate after 60 mins by electrochemiluminescent plate-based assay
For assay [2], the target named is Human immunodeficiency virus type 1 reverse transcriptase (Human immunodeficiency virus 1, UniProt Q72547).
Description: Inhibition of RNase H activity of recombinant HIV1 reverse transcriptase using poly(dC)-[3H]poly(rG) as substrate

Human immunodeficiency virus type 1 integrase, sequence (Q7ZJM1 whole entry): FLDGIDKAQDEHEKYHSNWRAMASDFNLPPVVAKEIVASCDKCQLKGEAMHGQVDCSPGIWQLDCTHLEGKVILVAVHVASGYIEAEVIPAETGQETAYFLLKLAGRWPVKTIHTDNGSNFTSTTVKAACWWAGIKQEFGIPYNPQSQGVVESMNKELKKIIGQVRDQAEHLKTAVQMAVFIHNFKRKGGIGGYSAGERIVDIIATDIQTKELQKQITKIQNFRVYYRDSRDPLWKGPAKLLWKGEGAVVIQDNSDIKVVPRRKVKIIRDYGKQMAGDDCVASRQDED

As a reminder, the IC50 is the midpoint of a concentration-inhibition curve. Read a low IC50 as higher potency. Regarding `N#Cc1ccccc1Cn1cccc1/C=C/C(=O)CC(=O)C(=O)O`, the IC50 in assay [1] and in assay [2] was 6 µM throughout.
As to `O=C(/C=C/c1cccn1Cc1cc(Cl)cc(Cl)c1)CC(=O)C(=O)O`, the results for the IC50 in assay [1] and in assay [2] were 0.97 µM and 30 µM, respectively.
For `CCOC(=O)C(=O)CC(=O)/C=C/c1cccn1Cc1cccc(C)c1` the same measures were 8 µM and 9.6 µM.
In the case of `CCOC(=O)C(=O)CC(=O)/C=C/c1cccn1Cc1cccc(F)c1F`, the IC50 in assay [1] came out at 0.53 µM; in assay [2], 8 µM.
Take `O=C(/C=C/c1cccn1Cc1c(F)cccc1F)CC(=O)C(=O)O`: the IC50 in assay [1] came to 0.15 µM; in assay [2], 50 µM.
For `O=C(/C=C/c1cccn1Cc1ccc(Cl)cc1Cl)CC(=O)C(=O)O` the same measures were 4.9 µM and 7 µM.
On the same counts, the results for `CCOC(=O)C(=O)CC(=O)/C=C/c1cccn1Cc1ccccc1F` are 1 µM and 6.3 µM.
For `CCOC(=O)C(=O)CC(=O)/C=C/c1cccn1Cc1c(F)cccc1F` the same measures were 4 µM and 19 µM.
Regarding `CCOC(=O)C(=O)CC(=O)/C=C/c1cccn1Cc1cc(C)cc(C)c1`, the IC50 amounted to 19 µM in assay [1] and 6 µM in assay [2].
For `O=C(/C=C/c1cccn1Cc1cc(F)ccc1F)CC(=O)C(=O)O` the same measures were 0.052 µM and 5 µM.
On the same counts, the results for `O=C(/C=C/c1cccn1Cc1ccc(Cl)cc1)CC(=O)C(=O)O` are 4.1 µM and 5 µM.
On the same counts, the results for `CCOc1ccccc1Cn1cccc1/C=C/C(=O)CC(=O)C(=O)O` are 0.31 µM and 64 µM.
`N#Cc1cccc(Cn2cccc2/C=C/C(=O)CC(=O)C(=O)O)c1`: the IC50 was found to be 0.75 µM in assay [1] and 5 µM in assay [2].
Regarding `CCOC(=O)C(=O)CC(=O)/C=C/c1cccn1Cc1ccccc1C`, the IC50 was found to be 32 µM in assay [1] and 3 µM in assay [2].
Turning to `Cc1cc(C)cc(Cn2cccc2/C=C/C(=O)CC(=O)C(=O)O)c1`, the IC50 in assay [1] stood at 1.6 µM; in assay [2] it was 16 µM.
With `COc1ccccc1Cn1cccc1/C=C/C(=O)CC(=O)C(=O)O`, the half-maximal inhibitory concentration (IC50) in assay [1] was found to be 0.53 µM; in assay [2], 16 µM.
In the case of `CCOC(=O)C(=O)CC(=O)/C=C/c1cccn1Cc1ccc(C#N)cc1`, the IC50 in assay [1] is over 111 µM; in assay [2] it was 8 µM.
On the same counts, the results for `O=C(/C=C/c1cccn1Cc1ccc(F)c(F)c1)CC(=O)C(=O)O` are 1.6 µM and 86 µM.
As for `Cc1cccc(Cn2cccc2/C=C/C(=O)CC(=O)C(=O)O)c1`, the IC50 in assay [1] came to 1.3 µM; in assay [2], 4.6 µM.
`Cc1ccc(Cn2cccc2/C=C/C(=O)CC(=O)C(=O)O)cc1` had an IC50 in assay [2] of 17 µM.
Same read-out and setting: with `CCOC(=O)C(=O)CC(=O)/C=C/c1cccn1Cc1ccc(Cl)cc1` the figure was 8 µM.
Regarding `CCOC(=O)C(=O)CC(=O)/C=C/c1cccn1Cc1cc(F)cc(F)c1`, the values for the IC50 in assay [1] and in assay [2] were 0.49 µM and 5 µM, respectively.
With `CCOC(=O)C(=O)CC(=O)/C=C/c1cccn1Cc1ccc(F)cc1F`, the IC50 in assay [1] was 1 µM; in assay [2], 19 µM.
On the same counts, the results for `CCOC(=O)C(=O)CC(=O)/C=C/c1cccn1Cc1ccccc1OCC` are 12 µM and over 100 µM.
For `CCOC(=O)C(=O)CC(=O)/C=C/c1cccn1Cc1c(Cl)cccc1Cl` the same measures were 1.7 µM and 22 µM.
In assay [2], `CCOC(=O)C(=O)CC(=O)/C=C/c1cccn1Cc1ccc(C)cc1` returned an IC50 of 7.3 µM.
As to `O=C(/C=C/c1cccn1Cc1cccc(F)c1)CC(=O)C(=O)O`, the half-inhibitory concentration (IC50) in assay [1] was determined as 0.92 µM; in assay [2], 14 µM.
For the molecule `CCOC(=O)C(=O)CC(=O)/C=C/c1cccn1Cc1cccc(C#N)c1`, the half-inhibitory concentration (IC50) in assay [1] is 13 µM; in assay [2], 5 µM.
On the same counts, the results for `CCOC(=O)C(=O)CC(=O)/C=C/c1cccn1Cc1ccccc1OC` are 23 µM and over 100 µM.
As to `CCOC(=O)C(=O)CC(=O)/C=C/c1cccn1Cc1cc(Cl)cc(Cl)c1`, the 50% inhibitory concentration (IC50) in assay [1] was 8 µM. That is a single-digit micromolar value.
In the case of `CCOC(=O)C(=O)CC(=O)/C=C/c1cccn1Cc1cccc(Cl)c1`, the IC50 in assay [1] was determined as 6 µM; in assay [2], 19 µM.
On the same counts, the results for `CCOC(=O)C(=O)CC(=O)/C=C/c1cccn1Cc1ccc(Cl)cc1Cl` are over 111 µM and 9 µM.
On the same counts, the results for `O=C(/C=C/c1cccn1Cc1cc(F)cc(F)c1)CC(=O)C(=O)O` are 1.2 µM and 14 µM.
As for `O=C(/C=C/c1cccn1Cc1cccc(Cl)c1)CC(=O)C(=O)O`, the IC50 in assay [1] stood at 0.31 µM; in assay [2] it was 9 µM.
On the same counts, the results for `CCOC(=O)C(=O)CC(=O)/C=C/c1cccn1Cc1cccc(F)c1` are 11 µM and 9 µM.
For `O=C(/C=C/c1cccn1Cc1ccc(F)cc1)CC(=O)C(=O)O` the same measures were 0.026 µM and 2.5 µM.
On the same counts, the results for `O=C(/C=C/c1cccn1Cc1c(Cl)cccc1Cl)CC(=O)C(=O)O` are 0.17 µM and 28 µM.
For the molecule `CCOC(=O)C(=O)CC(=O)/C=C/c1cccn1Cc1ccc(OC)cc1`, half-maximal inhibition in assay [2] (IC50) was put at 6.7 µM.
On the same count and under the same terms, the figure for `COc1ccc(Cn2cccc2/C=C/C(=O)CC(=O)C(=O)O)cc1` is 3 µM.
The same measure, in the same setting: the figure for `O=C(/C=C/c1cccn1Cc1ccccc1)CC(=O)C(=O)O` is 15 µM.
`O=C(/C=C/c1cccn1Cc1ccccc1F)CC(=O)C(=O)O`: the IC50 was determined as 0.98 µM in assay [1] and 6.4 µM in assay [2].
On the same counts, the results for `CCOC(=O)C(=O)CC(=O)/C=C/c1cccn1Cc1ccccc1C#N` are 9 µM and 32 µM.
Take `O=C(/C=C/c1cccn1Cc1cccc(F)c1F)CC(=O)C(=O)O`: the concentration for half-maximal inhibition (IC50) in assay [1] was 0.059 µM; in assay [2] it was 6 µM.
On to `CCOC(=O)C(=O)CC(=O)/C=C/c1cccn1Cc1cc(F)ccc1F`, for which the figures for the IC50 in assay [1] and in assay [2] were 0.45 µM and 9 µM, respectively.
On the same counts, the results for `O=C(/C=C/c1cccn1Cc1ccc(F)cc1F)CC(=O)C(=O)O` are 0.042 µM and 10 µM.
For `N#Cc1ccc(Cn2cccc2/C=C/C(=O)CC(=O)C(=O)O)cc1` the same measures were 1.7 µM and 6 µM.
On the same counts, the results for `Cc1ccccc1Cn1cccc1/C=C/C(=O)CC(=O)C(=O)O` are 0.17 µM and 26 µM.

The values are drawn from ChEMBL document CHEMBL3085743, “6-(1-Benzyl-1H-pyrrol-2-yl)-2,4-dioxo-5-hexenoic acids as dual inhibitors of recombinant HIV-1 integrase and ribonuclease H, synthesized by a parallel synthesis approach” (J Med Chem, 2013).
